Results reported in patent US10858360B2, “Tricyclic gyrase inhibitors” (priority 2011, dated 2020).
Converted amounts (≈) assume the structure as drawn.

Assays:
S. aureus ATCC 13709 = experiment: MIC, S. aureus ATCC 13709 (Alamar Blue broth microdilution); type: cell-based; conditions: Alamar Blue read after overnight incubation at 35° C.; for MIC Sa: S. aureus; for MIC: Staphylococcus aureus, ATCC13709, S. aureus
E. coli ATCC 25922 = experiment: MIC, E. coli ATCC 25922; type: cell-based; conditions: Alamar Blue read after overnight incubation at 35° C.; for MIC Ec: E. coli; for MIC: Escherichia coli, ATCC25922, E. coli

| SMILES | MIC Sa (S. aureus ATCC 13709) [µg/mL] | MIC Ec (E. coli ATCC 25922) [µg/mL] | MIC (S. aureus ATCC 13709) [µg/mL] | MIC (E. coli ATCC 25922) [µg/mL] |
| --- | --- | --- | --- | --- |
| CNc1cc(F)cc2c1[nH]c1nc(Oc3cnc(C)nc3)nc(N3CC4CC4(CN)C3)c12 (centres unmarked) [4.098] | ≤0.5 | 1 (≈ 2.3 µM) |  |  |
| CNc1cc(F)cc2c1[nH]c1nc(Oc3cnc(C)nc3)nc(N3C[C@H]4CCC(N)[C@@]4(C)C3)c12 (some centres unmarked) [4.099] | ≤0.5 | 4 (≈ 8.65 µM) |  |  |
| CNc1cc(F)cc2c1[nH]c1nc(Oc3cnc(C)nc3)nc(N3CC4(CCC4N)C3)c12 (centres unmarked) [4.100] | ≤0.5 | ≤0.5 |  |  |
| CNc1cc(F)cc2c1[nH]c1nc(Oc3cnc(C)nc3)nc(N3CCCC4(CC4N)C3)c12 (centres unmarked) [4.101] | ≤0.5 | ≤0.5 |  |  |
| CNc1cc(F)cc2c1[nH]c1nc(Oc3cnc(C)nc3)nc(N3CC4CCC(N)C4C3)c12 (centres unmarked) [4.102] | ≤0.5 | 2 (≈ 4.46 µM) |  |  |
| CNc1cc(F)cc2c1[nH]c1nc(Oc3cnc(C)nc3)nc(N3CC4CC(N)CC4C3)c12 (centres unmarked) [4.104] | ≤0.5 | ≤0.5 |  |  |
| CNc1cc(F)cc2c1[nH]c1nc(Oc3cnc(C)nc3)nc(N3CC4C(CN)C4C3)c12 (centres unmarked) [4.106] | ≤0.5 | 2 (≈ 4.6 µM) |  |  |
| CNc1cc(F)cc2c1[nH]c1nc(Oc3cnc(C)nc3)nc(N3CCC4(CC3)NC(=O)NC4=O)c12 [4.107] | >16 | >16 |  |  |
| CNc1cc(F)cc2c1[nH]c1nc(Oc3cnc(C)nc3)nc(NCCCN)c12 [4.108] | 4 (≈ 10.1 µM) | >16 |  |  |
| CNc1cc(F)cc2c1[nH]c1nc(Oc3cnc(C)nc3)nc(NC3CCCC[C@@H]3N)c12 (some centres unmarked) [4.109] | ≤0.5 | 1 (≈ 2.29 µM) |  |  |
| CNc1cc(F)cc2c1[nH]c1nc(Oc3cnc(C)nc3)nc(N3CC4CC(N)C4C3)c12 (centres unmarked) [4.110] | ≤0.5 | ≤0.5 |  |  |
| CNc1cc(F)cc2c1[nH]c1nc(Oc3cnc(C)nc3)nc(N3CC4CC(N)C4C3)c12 (centres unmarked) [4.111] | ≤0.5 | ≤0.5 |  |  |
| CNc1cc(F)cc2c1[nH]c1nc(Oc3cnc(C)nc3)nc(N3CC4CCC(CN)C4C3)c12 (centres unmarked) [4.112] | ≤0.5 | 1 (≈ 2.16 µM) |  |  |
| CNc1cc(F)cc2c1[nH]c1nc(Oc3cnc(C)nc3)nc(N3CC4NCCOC4C3)c12 (centres unmarked) [4.114] | ≤0.5 | 2 (≈ 4.44 µM) |  |  |
| CNc1cc(F)cc2c1[nH]c1nc(Oc3cnc(C)nc3)nc(N3CC(N)CC3C)c12 (centres unmarked) [4.115] | 1 (≈ 2.37 µM) | 8 (≈ 18.9 µM) |  |  |
| CNc1cc(F)cc2c1[nH]c1nc(Oc3cnc(C)nc3)nc(N3CC4CCNC4(C)C3)c12 (centres unmarked) [4.116] | ≤0.5 | ≤0.5 |  |  |
| CNc1cc(F)cc2c1[nH]c1nc(Oc3cnc(C)nc3)nc(N3CC4(CCCN4)C3)c12 [4.119] | ≤0.5 | 2 (≈ 4.6 µM) |  |  |
| CNc1cc(F)cc2c1[nH]c1nc(Oc3cnc(C)nc3)nc(N3CC4(CCN4)C3)c12 [4.120] | ≤0.5 | 1 (≈ 2.38 µM) |  |  |
| CNc1cc(F)cc2c1[nH]c1nc(Oc3cnc(C)nc3)nc(N3CC4CONC4C3)c12 (centres unmarked) [4.122] | ≤0.5 | 1 (≈ 2.29 µM) |  |  |
| CNc1cc(F)cc2c1[nH]c1nc(Oc3cnc(C)nc3)nc(N3CC4CCC(N)C3C4)c12 (centres unmarked) [4.123] | 16 (≈ 35.7 µM) | >16 |  |  |
| CNc1cc(F)cc2c1[nH]c1nc(Oc3cnc(C)nc3)nc(N3CC(NC(=O)C(N)CO)C4(CC4)C3)c12 (centres unmarked) [4.124] | ≤0.5 | 8 (≈ 15.3 µM) |  |  |

| SMILES | MIC Sa (S. aureus ATCC 13709) [µg/mL] | MIC Ec (E. coli ATCC 25922) [µg/mL] | MIC (S. aureus ATCC 13709) [µg/mL] | MIC (E. coli ATCC 25922) [µg/mL] |
| --- | --- | --- | --- | --- |
| CNc1cc(F)cc2c1[nH]c1nc(Oc3cnc(C)nc3)nc(N3CCC4(CNC4)C3)c12 [4.125] | ≤0.5 | 4 (≈ 9.21 µM) |  |  |
| CNc1cc(F)cc2c1[nH]c1nc(Oc3cnc(C)nc3)nc(N3CCC4(CCNC4)C3)c12 (centres unmarked) [4.126] | ≤0.5 | 2 (≈ 4.46 µM) |  |  |
| CNc1cc(F)cc2c1[nH]c1nc(Oc3cnc(C)nc3)nc(N3CC(NC(=O)CNC(=O)C(N)CO)C4(CC4)C3)c12 (centres unmarked) [4.127] | 8 (≈ 13.8 µM) | >16 |  |  |
| CNc1cc(F)cc2c1[nH]c1nc(Oc3cnc(C)nc3)nc(N3CC4CC3CC4N)c12 (centres unmarked) [4.128] | ≤0.5 | 4 (≈ 9.21 µM) |  |  |
| CNc1cc(F)cc2c1[nH]c1nc(Oc3cnc(C)nc3)nc(N3CC4CC3CC4N)c12 (centres unmarked) [4.129] | ≤0.5 | ≤0.5 |  |  |
| CNc1cc(F)cc2c1[nH]c1nc(Oc3cnc(C)nc3)nc(N3CC4CC3CC4N)c12 (centres unmarked) [4.130] | ≤0.5 | ≤0.5 |  |  |
| CNc1cc(F)cc2c1[nH]c1nc(Oc3cnc(C)nc3)nc(N3CCNC4(CC4)C3)c12 [4.132] | ≤0.5 | 2 (≈ 4.6 µM) |  |  |
| CNc1cc(F)cc2c1[nH]c1nc(Oc3cnc(C)nc3)nc(N3CCNCC34CC4)c12 [4.133] | >16 | >16 |  |  |
| CNc1cc(F)cc2c1[nH]c1nc(Oc3cnc(C)nc3)nc(N(C)C3CNC3)c12 [4.134] | >16 | >16 |  |  |
| CNc1cc(F)cc2c1[nH]c1nc(Oc3cnc(C)nc3)nc(N3CCC(C)(N)CC3)c12 [4.135] | ≤0.5 | 1 (≈ 2.29 µM) |  |  |
| CNc1cc(F)cc2c1[nH]c1nc(Oc3cnc(C)nc3)nc(N3C[C@H](N)[C@@H](O)C3)c12 [4.136] | 2 (≈ 4.71 µM) | 8 (≈ 18.8 µM) |  |  |
| CNc1cc(F)cc2c1[nH]c1nc(Oc3cnc(C)nc3)nc(N3CC(N)C(F)C3)c12 (centres unmarked) [4.137] | ≤0.5 | 1 (≈ 2.35 µM) |  |  |
| CNc1cc(F)cc2c1[nH]c1nc(Oc3cnc(C)nc3)nc(N3CC(N)C3)c12 [4.138] | ≤0.5 | ≤0.5 |  |  |
| CNc1cc(F)cc2c1[nH]c1nc(Oc3cnc(C)nc3)nc(N3CCC4(CCC4N)CC3)c12 (centres unmarked) [4.139] | ≤0.5 | ≤0.5 |  |  |
| CCOC(=O)C1CN(c2nc(Oc3cnc(C)nc3)nc3[nH]c4c(NC)cc(F)cc4c23)CC1N (centres unmarked) [4.140] | ≤0.5 | 2 (≈ 4.16 µM) |  |  |
| CNc1cc(F)cc2c1[nH]c1nc(Oc3cnc(C)nc3)nc(N3CC(NC(=O)C(C)N)C4(CC4)C3)c12 (centres unmarked) [4.142] | ≤0.5 | 1 (≈ 1.98 µM) |  |  |
| CNc1cc(F)cc2c1[nH]c1nc(Oc3cnc(C)nc3)nc(N3CC(CN)C3)c12 [4.143] | ≤0.5 | 2 (≈ 4.9 µM) |  |  |
| CNc1cc(F)cc2c1[nH]c1nc(Oc3cnc(C)nc3)nc(N3CC[C@H](N)[C@@H](F)C3)c12 [4.144] |  |  | ≤ 0.5 | 1 (≈ 2.27 µM) |
| CNc1cc(F)cc2c1[nH]c1nc(Oc3cnc(C)nc3)nc(N3CC(NC(=O)C(C)NC(=O)C(C)N)C4(CC4)C3)c12 (centres unmarked) [4.145] | 1 (≈ 1.73 µM) | 8 (≈ 13.9 µM) |  |  |
| CNc1cc(F)cc2c1[nH]c1nc(Oc3cnc(C)nc3)nc(N3CC4[C@H](N)C[C@]4(C)C3)c12 (some centres unmarked) [4.146] |  |  | ≤ 0.5 | ≤ 0.5 |
| CNc1cc(F)cc2c1[nH]c1nc(Oc3cnc(C)nc3)nc(N3CC4CC(N)C3C4)c12 (centres unmarked) [4.148] |  |  | ≤ 0.5 | 4 (≈ 9.21 µM) |

| SMILES | MIC Sa (S. aureus ATCC 13709) [µg/mL] | MIC Ec (E. coli ATCC 25922) [µg/mL] | MIC (S. aureus ATCC 13709) [µg/mL] | MIC (E. coli ATCC 25922) [µg/mL] |
| --- | --- | --- | --- | --- |
| CNc1cc(F)cc2c1[nH]c1nc(Oc3cnc(C)nc3)nc(N3CC4(CCCNC4)C3)c12 [4.149] | ≤0.5 | 2 (≈ 4.46 µM) |  |  |
| CNc1cc(F)cc2c1[nH]c1nc(Oc3cnc(C)nc3)nc(N3CC4C(N)CC4(C)C3)c12 (centres unmarked) [4.150] | ≤0.5 | 1 (≈ 2.23 µM) |  |  |
| CNc1cc(F)cc2c1[nH]c1nc(Oc3cnc(C)nc3)nc(N3CCC(N)C(C)(C)C3)c12 (centres unmarked) [4.152] |  |  | ≤ 0.5 | 1 (≈ 2.22 µM) |
| CNc1cc(F)cc2c1[nH]c1nc(Oc3cnc(C)nc3)nc(N3CC4(CC(N)C4)C3)c12 [4.153] | ≤0.5 | 2 (≈ 4.6 µM) |  |  |
| CNc1cc(F)cc2c1[nH]c1nc(Oc3cnc(C)nc3)nc(N3CC4CC(N)C3C4)c12 (centres unmarked) [4.154] | 2 (≈ 4.6 µM) | 16 (≈ 36.8 µM) |  |  |
| CNc1cc(F)cc2c1[nH]c1nc(Oc3cnc(C)nc3)nc(N[C@@H]3CC4CC3CN4)c12 (some centres unmarked) [4.155] |  |  | 2 (≈ 4.6 µM) | > 16 |
| CNc1cc(F)cc2c1[nH]c1nc(Oc3cnc(C)nc3)nc(N3C[C@@H]4CCN[C@@H]4C3)c12 [4.156] |  |  | ≤ 0.5 | ≤ 0.5 |
| CNc1cc(F)cc2c1[nH]c1nc(Oc3cnc(C)nc3)nc(N3CC(N4CC(N)C4)C3)c12 [4.158] | ≤0.5 | 4 (≈ 8.9 µM) |  |  |
| CNc1cc(F)cc2c1[nH]c1nc(Oc3cnc(C)nc3)nc(N3CCC(F)(CN)CC3)c12 [4.159] |  |  | ≤ 0.5 | ≤ 0.5 |
| CNc1cc(F)cc2c1[nH]c1nc(Oc3cnc(C)nc3)nc(-c3ccc(Cl)cc3N)c12 [4.161] | ≤0.5 | ≤0.5 |  |  |
| CNc1cc(F)cc2c1[nH]c1nc(Oc3cnc(C)nc3)nc(C3=CCNCC3)c12 [4.162] | 8 (≈ 19.7 µM) | >16 |  |  |
| CNc1cc(F)cc2c1[nH]c1nc(Oc3cnc(C)nc3)nc(N3CCNCC3)c12 [4.163] | ≤0.5 | ≤0.5 |  |  |
| CNc1cc(F)cc2c1[nH]c1nc(Oc3cncc(OC)c3)nc(N3CC4C(N)C4C3)c12 (centres unmarked) [4.164] |  |  | ≤ 0.5 | 1 (≈ 2.3 µM) |
| CNc1cc(F)cc2c1[nH]c1nc(Oc3cncc(OC)c3)nc(N3C[C@H](N)C4(CC4)C3)c12 [4.165] |  |  | ≤ 0.5 | 1 (≈ 2.22 µM) |
| CNc1cc(F)cc2c1[nH]c1nc(Oc3cncc(OC)c3)nc(N3CCC4CNC4C3)c12 (centres unmarked) [4.166] |  |  | ≤ 0.5 | 2 (≈ 4.45 µM) |
| CNc1cc(F)cc2c1[nH]c1nc(Oc3cncc(-c4nnnn4C)c3)nc(N3CC4C(N)C4C3)c12 (centres unmarked) [4.168] |  |  | ≤ 0.5 | 2 (≈ 4.1 µM) |
| CNc1cc(F)cc2c1[nH]c1nc(Oc3cncc(-c4nnnn4C)c3)nc(N3CC[C@@H](N)C3)c12 [4.169] |  |  | 2 (≈ 4.21 µM) | 8 (≈ 16.8 µM) |
| CNc1cc(F)cc2c1[nH]c1nc(Oc3cncc(-c4nnnn4C)c3)nc(N3CC4CNC(C4)C3)c12 (centres unmarked) [4.170] |  |  | 2 (≈ 3.99 µM) | > 16 |
| CNc1cc(F)cc2c1[nH]c1nc(Oc3cnc(N)nc3)nc(N3CC4C(N)C4C3)c12 (centres unmarked) [4.172] |  |  | ≤ 0.5 | ≤ 0.5 |
